Test results from publication PMC5947510 (2015).

These compounds were tested on pre-miR-27a (RNA, miRNA) GGGCUGAGGAGCAGGGCUUAGCUGCUUGUGAGCAGGGUCCACACCAAGUCGUGUUCACAGUGGCUAAGUUCCGCCCCCCAG (assay: fluorescence titration (bisbenzimidazole emission)). Settings: 10 mM NaCl, 1 mM MgCl2; 10 mM sodium cacodylate, pH 7.5, 25 °C; compound 500 nM.

SMILES | Ka [M⁻¹]
CN1CCN(c2ccc3nc(-c4ccc5nc(-c6ccc(O)cc6)[nH]c5c4)[nH]c3c2)CC1 | 3.4e+06
CN1CCN(c2ccc3nc(-c4ccc5nc(-c6ccc(OCCCCCCCCCCOCc7cn(C[C@H]8O[C@@H](O[C@@H]9[C@@H](O)[C@H](N)C[C@H](N)[C@H]9O[C@H]9O[C@H](CN)[C@@H](O)[C@H](O)[C@H]9N)[C@H](O)[C@@H]8O[C@H]8O[C@@H](CN)[C@@H](O)[C@H](O)[C@H]8N)nn7)cc6)[nH]c5c4)[nH]c3c2)CC1 | 1.2e+07
CN1CCN(c2ccc3nc(-c4ccc5nc(-c6ccc(OCCCCCCCCCc7cn(C[C@H]8O[C@@H](O[C@@H]9[C@@H](O)[C@H](N)C[C@H](N)[C@H]9O[C@H]9O[C@H](CN)[C@@H](O)[C@H](O)[C@H]9N)[C@H](O)[C@@H]8O[C@H]8O[C@@H](CN)[C@@H](O)[C@H](O)[C@H]8N)nn7)cc6)[nH]c5c4)[nH]c3c2)CC1 | 3.2e+08
CN1CCN(c2ccc3nc(-c4ccc5nc(-c6ccc(OCCCCCCCCOCc7cn(C[C@H]8O[C@@H](O[C@@H]9[C@@H](O)[C@H](N)C[C@H](N)[C@H]9O[C@H]9O[C@H](CN)[C@@H](O)[C@H](O)[C@H]9N)[C@H](O)[C@@H]8O[C@H]8O[C@@H](CN)[C@@H](O)[C@H](O)[C@H]8N)nn7)cc6)[nH]c5c4)[nH]c3c2)CC1 | 2.5e+07
CN1CCN(c2ccc3nc(-c4ccc5nc(-c6ccc(OCCCCCCOCc7cn(C[C@H]8O[C@@H](O[C@@H]9[C@@H](O)[C@H](N)C[C@H](N)[C@H]9O[C@H]9O[C@H](CN)[C@@H](O)[C@H](O)[C@H]9N)[C@H](O)[C@@H]8O[C@H]8O[C@@H](CN)[C@@H](O)[C@H](O)[C@H]8N)nn7)cc6)[nH]c5c4)[nH]c3c2)CC1 | 1.2e+08
CN1CCN(c2ccc3nc(-c4ccc5nc(-c6ccc(OCCCCOCc7cn(C[C@H]8O[C@@H](O[C@@H]9[C@@H](O)[C@H](N)C[C@H](N)[C@H]9O[C@H]9O[C@H](CN)[C@@H](O)[C@H](O)[C@H]9N)[C@H](O)[C@@H]8O[C@H]8O[C@@H](CN)[C@@H](O)[C@H](O)[C@H]8N)nn7)cc6)[nH]c5c4)[nH]c3c2)CC1 | 7.4e+08
